Active and inactive are the calls of the source. The calls are words filed in the database; no cut-off is given here.
How the values were obtained:
[1] = Toxicity in healthy C57BL/6 mouse assessed as histological changes in spleen at 100 mg/kg, po administered for 10 days by H and E staining based assay; type: organism-based; details: in vivo, 240 h, time 10 day
[2] = system: Mus musculus; assay: Antiinflammatory activity in DSS-induced C57BL/6 mouse model of colitis assessed as increase in IL-10 level 25 to 100 mg/kg, po administered via gavage twice a day for 10 days; type: functional, organism-based; details: dose 25-100 mg/kg, time 10.0 day
[3] = Tmax in healthy C57BL/6 mouse at 25 mg/kg, po measured up to 6 hrs by UPLC-MS/MS analysis; type: ADME, organism-based; details: in vivo
[4] = Metabolic stability in healthy C57BL/6 mouse plasma assessed as half life measured up to 12 hrs by HPLC analysis; type: ADME, cell-free
[5] = system: Mus musculus; assay: Anti-colitis activity against DSS-induced colitis in C57BL/6 mouse model assessed as decrease in MPO level in colon at 25 mg/kg, po administered via gavage twice a day for 10 days; type: functional; parameters: scale not given: the % may be the effect or the level left; details: time 10 day
[6] = system: Mus musculus; assay: Anti-colitis activity against DSS-induced C57BL/6 mouse model of colitis assessed as fold change in body weight recovery at 25 to 100 mg/kg, po administered via gavage twice a day for 10 days relative to SASP; type: functional; details: dose 25-100 mg/kg; time 10 day
[7] = system: Mus musculus; assay: Anti-colitis activity against DSS-induced C57BL/6 mouse model of colitis assessed as fold change in disease activity index at 25 to 100 mg/kg, po administered via gavage twice a day for 10 days relative to SASP; type: functional; details: dose 25-100 mg/kg; time 10 day
[8] = target: T1, Solute carrier family 15 member 1 (Homo sapiens, UniProt P46059); assay: Substrate activity at PEPT1 in human Caco-2 cells assessed as inhibition of Gly-Sar substrate uptake by UPLC-MS/MS analysis; type: cell-based; details: human, caco-2
T1 sequence (P46059 whole entry): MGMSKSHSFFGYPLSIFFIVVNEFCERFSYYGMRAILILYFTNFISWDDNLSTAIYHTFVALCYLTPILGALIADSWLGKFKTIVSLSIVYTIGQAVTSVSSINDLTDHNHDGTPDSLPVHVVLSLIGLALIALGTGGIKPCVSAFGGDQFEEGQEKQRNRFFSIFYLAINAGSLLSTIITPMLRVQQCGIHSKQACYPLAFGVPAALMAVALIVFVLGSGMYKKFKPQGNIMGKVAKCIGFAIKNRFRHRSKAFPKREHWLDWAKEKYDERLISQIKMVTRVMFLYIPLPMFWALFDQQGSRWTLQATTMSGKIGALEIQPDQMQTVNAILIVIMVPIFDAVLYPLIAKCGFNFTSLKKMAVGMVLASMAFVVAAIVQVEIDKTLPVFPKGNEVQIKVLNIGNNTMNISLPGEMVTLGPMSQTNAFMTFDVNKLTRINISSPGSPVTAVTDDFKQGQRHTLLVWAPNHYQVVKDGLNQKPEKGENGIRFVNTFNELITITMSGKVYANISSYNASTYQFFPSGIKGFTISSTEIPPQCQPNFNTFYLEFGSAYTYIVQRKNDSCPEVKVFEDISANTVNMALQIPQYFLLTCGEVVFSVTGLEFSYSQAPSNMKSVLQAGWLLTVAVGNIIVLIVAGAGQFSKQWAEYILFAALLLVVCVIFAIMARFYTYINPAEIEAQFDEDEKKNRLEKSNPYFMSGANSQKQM

[9] = system: Mus musculus; assay: Anti-colitis activity against DSS-induced colitis in C57BL/6 mouse model assessed as assessed as recovery of body weight at 25 mg/kg, po administered via gavage twice daily for 10 days; type: functional, organism-based; details: time 10.0 day
[10] = system: Mus musculus; assay: Anti-colitis activity against DSS-induced colitis in C57BL/6 mouse model assessed as increase in colon length at 25 mg/kg, po administered via gavage twice daily for 10 days; type: functional, organism-based; details: time 10.0 day
[11] = Toxicity in healthy C57BL/6 mouse assessed as histological changes in lung at 100 mg/kg, po administered for 10 days by H and E staining based assay; type: organism-based; details: in vivo, 240 h, time 10 day
[12] = Chemical stability in acetate buffer at pH 4.5 assessed as half life measured up to 12 hrs by HPLC analysis; type: physicochemical

Tmax [3]: 4 h
half-life [4]: > 12 h
inhibition (INH) [8]: Not Active
half-life [12]: > 12 h
SMILES: O=C(O)[C@@H](CO)NC(=O)[C@H]1C[C@@H](O)CN1
Activity [1]: Non-Toxic
Activity [2]: Active
Activity [5]: 72.8%
fold change (FC) [6]: 2.1
fold change (FC) [7]: 2.3
Activity [9]: Active
Activity [10]: Active
Activity [11]: Non-Toxic
